For data set [1] the following is noted: patients, ref given per drug, cited from earlier work; for Cmax: read-out: Maximum plasma concentration (Cmax) in patients.
Data set [2] relates to primary human hepatocytes (PHH). Kind of data set: Neutral lipids with Nile red in primary human hepatocytes. The following applies: 4 days. Type of data set: cell-based. The method, then:
Primary human hepatocytes (PHH) were purchased from Biopredic International (Saint-Grégoire, France). Cells were seeded by the supplier in coated 96-well plates at a density of 5 × 10^4 cells/well. Upon receipt, culture medium was removed and replaced by William’s E medium supplemented as previously described for HepaRG cell differentiation, except for DMSO set at 1%. After 2–3 days, cells were treated as for HepaRG cells. For HepaRG cells and PHH, cells were always maintained in incubators at 37 °C with 5% CO2 and saturating humidity.
Cells were then incubated with PBS containing 0.1 μg/mL Nile red for 30 min and washed once. […] For each well, four pictures were taken at a magnification of × 20 and analyzed with Columbus software (PerkinElmer) for quantification. These pictures were always taken in four different areas around the center of each well, and these areas were the same from one well to another, as programmed by the Columbus software. This software was also designed to count only living cells after exclusion of dying cells harboring nuclei with abnormal shape or altered Hoechst intensity. […] Neutral lipids were then normalized per number of nuclei and expressed relative to control cells. Examples of images used for neutral lipid quantification are shown in Supplementary Fig. 2.

For the next data set, the system named is phospho-IRE1α (Ser724). Kind of data set: Western blot phospho-IRE1α in HepaRG cells. Type of data set: cell-based, human. The protocol: (§1) Cells were lysed in ice-cold CelLytic M buffer (C2978; Sigma Aldrich) containing phosphatase and protease inhibitors from Roche Applied Science (Penzberg, Germany). Protein concentration was determined using the Pierce BCA Protein Assay Kit (Thermo Fisher Scientific) and equal amounts of protein were diluted with NuPAGE LDS Sample Buffer (Thermo Fisher Scientific). Samples (ca. 25 μg of proteins) were then separated by SDS-PAGE using NuPAGE 4–12% Bis-Tris gels (Thermo Fisher Scientific). Proteins were transferred to PVDF membranes (BioRad) and Ponceau S staining was used to confirm equal loading and transfer. Membranes were blocked in 7.5% milk in TBST (10 mM Tris–HCl, 100 mM NaCl, 0.02% Tween 20) for 1 h at room temperature and incubated overnight at 4 °C with antibodies against phospho-IRE1α (Ser724) (Abcam, ab124945), IRE1α (Cell Signaling, 3294), or HSC70 (Santa Cruz, sc-7298), whose dilutions were 1:1000. […] Protein content was quantified by densitometry with ImageJ software (National Institutes of Health, Bethesda, MD).

A further data set deals with IRE1α. In words: Western blot total IRE1α in HepaRG cells. In kind it is cell-based, human. The protocol: as §1
(In western blotting, separated proteins are transferred to a membrane and probed.)

For data set [3] the following is noted: treated patients, ref Schulz M et al., Crit Care 2012 ;16(4):R136, cited from earlier work.
The subject of data set [4] is permeabilized HepaRG cells. In words: Oxygen consumption in permeabilized HepaRG cells (Seahorse). In kind it is cell-based, human. The following applies: for EC20 values for inhibition of O2 consumption, Glutamate + malate / EC20 values for inhibition of O2 consumption, Octanoyl-L-carnitine / EC20 values for inhibition of O2 consumption, Palmitoyl-CoA + L-carnitine / EC20 values for inhibition of O2 consumption, Palmitoyl-L-carnitine: state 3, mean ± SD, 2-3 runs. The method, then: Cryopreserved differentiated HepaRG cells (HPR116, Biopredic International) were thawed and seeded at 36,000 cells/well in Seahorse XFe96 cell culture microplate (Agilent) in HepaRG® Thawing/Plating/General Purpose Medium Supplement with antibiotics (Biopredic International) combined with 100 mL of William’s Medium E (Sigma) and incubated at 37 °C with 5% CO2. The day after, medium was replaced by HepaRG Maintenance/Metabolism Medium Supplement with antibiotics (Biopredic International) combined with 100 mL of William’s Medium E. […] Two technical replicates were carried out per condition in two to three independent experimental runs.

A further data set has as its system ERN1 (IRE1α). In words: RT-qPCR ERN1 mRNA in HepaRG cells. Type of data set: cell-based, human. The following applies: 4 days, vs control. The essentials:
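DNase-treated total RNA from HepaRG cells reverse-transcribed and quantified by SYBR Green RT-qPCR. Expression normalised to GAPDH and given as relative values by the 2^−ΔΔCt method.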
(Quantitative PCR measures a nucleic acid by following its amplification.)

Data set [5] has as its system de novo lipogenesis (DNL). In words: DNL from [2-14C]acetic acid in HepaRG cells. In kind it is cell-based, human. The following applies: 4 days, vs control.
The test system of data set [6] is mitochondrial fatty acid oxidation (mtFAO). Kind of data set: mtFAO with [U-14C]palmitic acid in HepaRG cells. Type of data set: cell-based, human. The following applies: 4 days, vs control. The method, then: Experiments were carried out on passages 9 to 16. […] DPEN was dissolved in water.
Results were normalized to total protein content determined using the Pierce BCA assay kit from Thermo Fischer Scientific (Waltham, MA). Results were expressed in comparison to control cells.

Data set [7] is described as follows: Maximum plasma concentration (Cmax) in patients. In kind it is in vivo, human. The note with it: worked out from cited Cmax in patients.

“And” between values parts separate entries of the source, which are not always exact repeats. Identical values can stand only once. “Also recorded” adds a separate entry of the source. Like-named read-outs stand apart in the source and are kept apart here.

With `COc1ccc2c(c1)c(CC(=O)O)c(C)n2C(=O)c1ccc(Cl)cc1` [INDO, indomethacin], in data set [1], the “Maximum plasma concentration (Cmax) in patients” value is at most 8000 ng/mL and the Cmax was at most 22 µM. Further, the “Steatosis in PHH batches (six batches tested)” value in [2] was “steatotic in two PHH batches”. Also, the “Protein level of phospho-IRE1α (pIRE1α)” value in the data set with phospho-IRE1α (Ser724) is reported as “increased protein level”. In addition, the “Protein level of total IRE1α” value with IRE1α is “increased protein level”. For the same molecule, the “Therapeutic blood (or plasma) concentration in patients” value in [3] (listed as Indomethacin (INDO)) is 0.3 - 1 mg/L and 0.83 - 2.8 µM. Also, in data set [4], the “EC20 values for inhibition of O2 consumption, Glutamate + malate” value was 119 ± 20 µM; the “EC20 values for inhibition of O2 consumption, Octanoyl-L-carnitine” value turned out to be 150 ± 11 µM; the “EC20 values for inhibition of O2 consumption, Palmitoyl-CoA + L-carnitine” value amounted to 79 ± 8 µM; the “EC20 values for inhibition of O2 consumption, Palmitoyl-L-carnitine” value turned out to be 163 ± 26 µM. For the same molecule, the “ERN1 (IRE1α) mRNA level” value with ERN1 (IRE1α) is “enhanced IRE1α mRNA level”. In [5], the “Effect on DNL” value is “increased DNL”. Besides, the “Effect on mtFAO” value in [6] is “inhibited this metabolic pathway and mild”. The “Concentration corresponding to 100xCmax” value in [7] worked out at 2200 µM.
For the molecule `CO[C@H]1/C=C/O[C@@]2(C)Oc3c(C)c(O)c4c(O)c(c(/C=N/N5CCN(C)CC5)c(O)c4c3C2=O)NC(=O)/C(C)=C\C=C\[C@H](C)[C@H](O)[C@@H](C)[C@@H](O)[C@@H](C)[C@H](OC(C)=O)[C@@H]1C` [RIF, rifampicin], in data set [1], the “Maximum plasma concentration (Cmax) in patients” value was at most 15600 ng/mL and the Cmax was at most 19 µM. Also, in data set [2], the “Steatosis in PHH batches (six batches tested)” value was “induced steatosis in only one PHH batch”. The “Protein level of phospho-IRE1α (pIRE1α)” value with phospho-IRE1α (Ser724) is “increased protein level”. Further, in the data set on IRE1α, the “Protein level of total IRE1α” value was “increased protein level”. In addition, the “Therapeutic blood (or plasma) concentration in patients” value in data set [3] (listed as Rifampicin (RIF)) was 0.1 - 10 mg/L and 0.12 - 12.2 µM. The “EC20 for inhibition of O2 consumption, all substrates” value in [4] (all four substrates) is “above 200 μM”. Moreover, in data set [4], the “EC20 values for inhibition of O2 consumption, Glutamate + malate” value was over 200 µM; the “EC20 values for inhibition of O2 consumption, Octanoyl-L-carnitine” value is over 200 µM; the “EC20 values for inhibition of O2 consumption, Palmitoyl-CoA + L-carnitine” value was over 200 µM; the “EC20 values for inhibition of O2 consumption, Palmitoyl-L-carnitine” value is over 200 µM. Also, the “ERN1 (IRE1α) mRNA level” value in the data set on ERN1 (IRE1α) is “enhanced IRE1α mRNA level”. Also, the “Effect on DNL” value in data set [5] is recorded as “curb this metabolic pathway”. Further, the “Effect on mtFAO” value in [6] was “inhibited this metabolic pathway; also recorded: moderate”. The “Concentration corresponding to 100xCmax” value in [7] was 1900 µM.
